Test results: US20240059740A1, “CYCLIC PEPTIDES AND USES THEREOF” (PRE[…] INC., priority 2020, published 2024)
Residues, ends and D or L forms follow the SMILES beside them.

Assays:
[1] = test system: Snail-1 mRNA; experiment: Real time RT-PCR, Snail-1 mRNA expression; type: cell-based, human
From the text: (§1) The real-time reverse transcription polymerase chain reaction (RT-PCR) uses fluorescent reporter molecules to monitor the production of amplification products during each cycle of the PCR reaction. This combines the nucleic acid amplification and detection steps into one homogeneous assay and use of appropriate chemistries and data analysis eliminates the need for Southern blotting or DNA sequencing for amplicon identification. Its simplicity, specificity and sensitivity, together with its potential for high throughput and the ongoing introduction of new chemistries, more reliable instrumentation and improved protocols, has made real-time RT-PCR the benchmark technology for the detection and/or comparison of RNA levels.’
(§2) In order to detect and quantify the expression of specific genes at mRNA level, real-time reverse transcriptase polymerase chain reaction (Real time RT-PCR) was performed. Total RNA of samples was isolated and purified using the PureLink® RNA Mini Kit (Life technologies). The concentration of total RNA was detected by NanoDrop 2000 Spectrophotometer (Thermo Scientific). The total RNA (2000 ng) was reverse transcribed using the High-Capacity cDNA Reverse Transcription Kit (Applied Biosystems™).
(§3) The primers of target genes were TaqMan™ Gene Expression Assay for human PLAU (Hs01547054_m1), MMP-2 (Hs01548727_m1), MMP-9 (Hs00957562_m1), Snail-1 (Hs00195591_m1), Snail-2 (Hs00161904_m1), N-cadherin (Hs00983056_m1) and Twist (Hs01675818_s1). Relative quantification was done by reference to 18S ribosomal RNA (18S rRNA) and analysed using the comparative critical threshold (Ct) method
(§4) The mRNA expression of MMPs was measured using qRT-PCR. This was tested three independent times; the results are shown in Tables 9, 10 and 11 for U251, U87 cells and O81024 cells respectively. Results are reported as percent of the control cells (no treatment). Both MMP-2 and uPA were decreased in U251 by SEQ ID NO.1.
(§5) Epithelial-mesenchymal transition (EMT) is the process by which epithelial cells acquire a migratory (metastatic) phenotype and so EMT is associated with cancer metastasis, cancer cell stemness, chemoresistance and immune resistance. Therefore, the determination of the mRNA expression of EMT markers is a valuable tool to evaluate invasion potential of cancer cells.
The ‘Snail’ superfamily is involved in cell differentiation and survival, two processes central in cancer research. Snail-1 has a pivotal role in the regulation of epithelial-mesenchymal transition (EMT) and Snail-1 expression is associated with poor prognosis in metastatic cancer, and tumours with elevated Snail-1 expression are harder to treat. The significance of Snail-1 as a prognostic indicator, its involvement in the regulation of EMT and metastasis, and its roles in both drug and immune resistance point out that Snail-1 is an attractive target for tumour growth inhibition and a target for sensitization to cytotoxic drugs (Kaufhold et al., 2014). Twist is transcriptionally active during cell differentiation and lineage determination. During the establishment of cancer metastases by EMT, Twist acts independently of Snail to suppress E-cadherin and to upregulate N-cadherin (CDH-2) and fibronectin. Snail-2 (Slug) is another member of the SNAIL family of transcriptional activators and serves an important role in suppressing the epithelial phenotype in numerous cancer cells (Iwadate, 2016).

[2] = test system: CDH-2 (N-cadherin) mRNA; experiment: Real time RT-PCR, CDH-2 (N-cadherin) mRNA expression; type: cell-based, human
From the text: as §1, §2, §3, §4, §5
The ‘Snail’ superfamily is involved in cell differentiation and survival, two processes central in cancer research. Snail-1 has a pivotal role in the regulation of epithelial-mesenchymal transition (EMT) and Snail-1 expression is associated with poor prognosis in metastatic cancer, and tumours with elevated Snail-1 expression are harder to treat. […]

[3] = molecular target: T1, recombinant MMP-2 (Homo sapiens, UniProt P08253); experiment: MMP-2 Inhibitor Screening Assay Kit (colorimetric); type: biochemical
T1 construct: purchased ab139446
T1 sequence (P08253 110-660): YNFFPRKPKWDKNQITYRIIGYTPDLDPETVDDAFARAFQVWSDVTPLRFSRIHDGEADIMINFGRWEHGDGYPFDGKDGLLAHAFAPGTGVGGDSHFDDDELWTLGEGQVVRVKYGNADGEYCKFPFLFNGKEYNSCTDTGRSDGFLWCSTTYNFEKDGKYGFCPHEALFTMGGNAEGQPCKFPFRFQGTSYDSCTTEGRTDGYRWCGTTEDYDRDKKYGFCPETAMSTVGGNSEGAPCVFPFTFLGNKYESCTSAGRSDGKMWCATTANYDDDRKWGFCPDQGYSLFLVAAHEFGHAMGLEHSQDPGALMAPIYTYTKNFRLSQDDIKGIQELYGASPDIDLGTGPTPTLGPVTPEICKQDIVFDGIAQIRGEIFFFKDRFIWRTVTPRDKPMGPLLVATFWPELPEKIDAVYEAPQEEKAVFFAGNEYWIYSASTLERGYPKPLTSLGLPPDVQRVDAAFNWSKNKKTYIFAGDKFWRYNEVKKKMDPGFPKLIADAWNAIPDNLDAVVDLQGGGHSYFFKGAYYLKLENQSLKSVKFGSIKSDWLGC
Protocol: MMP-2 is an important target for inhibitor screening due to its involvement in cancer growth, angiogenesis, and metastasis. The MMP-2 screening assay was carried out with a commercially available MMP-2 Inhibitor Screening Assay Kit (Colorimetric, Catalog: ab139446) based on the manufacturers protocol. This assay is based on quantification of recombinant MMP-2 activity using a colorimetric assay (MMP-2 degrades a chromogenic substrate). The assay provides NNGH (N-isobutyl-N-(4-methoxyphenylsulfonyl) glycyl hydroxamic acid), a small molecule inhibitor, as a positive control (NNGH). […] Each determination was run in duplicate.
% Inhibition rate=(Vinhibitor/Vcontrol)×100
Briefly, MMP Substrate and MMP Inhibitor were warmed to room temperature to thaw DMSO. MMP Inhibitor (NNGH), MMP-2 substrate and MMP-2 enzyme were diluted with assay buffer to required concentration. 20 μL of MMP-2 enzyme and MMP-2 inhibitor (peptides, Chlorotoxin and NNGH) was added, then 50 μL of assay buffer was added and the reaction mixture incubated at 37° C. for 1 h. After incubation, 10 μL of MMP Substrate was added to start reaction. The reactions were continuously read at 412 nm in a microplate reader. Data was recorded at 1 min. time intervals for 10 to 20 min. The data as was plotted as optical density (OD) versus time for each sample. The reaction velocity (V) was obtained in OD/min: determine the slope of a line fit to the linear portion of the data plot using an appropriate routine. Then using the equation above the inhibitor % activity remaining was calculated. The control was without inhibitor.

[4] = U87 cells, baseline expression level = 1

**Q.** With `CC(C)C[C@@H]1NC(=O)[C@H](C)NC(=O)[C@@H](NC(=O)[C@@H]2CCCN2C(=O)[C@@H](N)CC(C)C)CSSC(C)(C)CNC(=O)CC[C@@H](C(=O)N[C@@H](CCCNC(=N)N)C(N)=O)NC(=O)[C@H](CC(=O)O)NC(=O)[C@H](CC(N)=O)NC1=O` [SEQ ID NO: 1, Leu-Pro-c(SSA*-Ala-Leu-Asn-Asp-Glu)-Arg-NH2] (HELM PEPTIDE1{L.P.C.A.L.N.D.E.R.[am]}|CHEM1{[CC(C)(CN[*:2])S[*:1]]}$PEPTIDE1,CHEM1,3:R3-1:R1|PEPTIDE1,CHEM1,8:R3-1:R2$$$V2.0; N-terminus assumed) as the molecule, how does the “mRNA expression, Snail-1” value ([1]; 081024 cells, baseline expression level = 1, listed as SEQ ID NO. 1) read?
**A.** The value was 0.60.

**Q.** And the “mRNA expression, Snail-1” value ([1]; 081024 cells, baseline expression level = 1, listed as SEQ ID NO.1)?
**A.** The value was “halved”.

**Q.** And the “mRNA expression, Snail-1” value [1, 4]?
**A.** The value was 0.84.

**Q.** And the “mRNA expression, Snail-1” value ([1]; U251 cells, relative to control (no treatment), listed as SEQ ID NO. 1)?
**A.** Its value is 0.42.

**Q.** And the “mRNA expression, Snail-1” value ([1]; U251 cells, relative to control (no treatment), listed as SEQ ID NO.1)?
**A.** The value was “decreased”.

**Q.** And the “mRNA expression, CDH-2” value ([2]; 081024 cells, baseline expression level = 1)?
**A.** The value was 0.91.

**Q.** What about the “mRNA expression, CDH-2” value [2, 4] of the same molecule?
**A.** The value was 0.98.

**Q.** And the “mRNA expression, CDH-2” value ([2]; U251 cells, relative to control (no treatment))?
**A.** Its value is 0.82.

**Q.** What about the “mRNA expression, CDH-2 (in words)” value ([2]; cell line not specified) of the same molecule?
**A.** The value was “non-statistical decrease in expression”.

**Q.** What about the remaining activity at 1 µM ([3]; 1 μM, 1 h preincubation at 37° C., lower value = higher inhibitory activity, read-out: % inhibition (Vinhibitor/Vcontrol ×100)) of the same molecule?
**A.** The remaining activity at 1 µM was 81%.

**Q.** What about the remaining activity at 10 µM ([3]; 10 μM, lower value = higher inhibitory activity, read-out: % inhibition (Vinhibitor/Vcontrol ×100)) of the same molecule?
**A.** Its remaining activity at 10 µM is 75.2%.

**Q.** What about the remaining activity at 100 µM ([3]; 100 μM, lower value = higher inhibitory activity, read-out: % inhibition (Vinhibitor/Vcontrol ×100)) of the same molecule?
**A.** The remaining activity at 100 µM was 66.9%.

**Q.** What about the “inhibition of MMP-2 activity (in words)” value ([3]; 1 to 100 μM) of the same molecule?
**A.** The value was “dose dependent ability to inhibit MMP-2 activity”.
